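Exposure lasted 48 hours, with cells grown in 96-well plates and compounds tested at five concentrations. The concentration for 50% growth inhibition is given as GI50.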 Calls of active or inactive are those of the source. No stated cut-off is given here; in the data, active = GI50 up to about 1.1 µM and inactive = higher.
What was measured:
Experiment in all cases: inhibition of tumour cell growth, NCI panel, 48 h
SNB-75 = test system: SNB-75
COLO 205 = test system: COLO 205
CCRF-CEM = test system: CCRF-CEM
NCI-H23 = test system: NCI-H23
HCC 2998 = test system: HCC 2998
UACC-62 = test system: UACC-62
SK-MEL-5 = test system: SK-MEL-5
HOP-62 = test system: HOP-62
UACC-257 = test system: UACC-257
OVCAR-8 = test system: OVCAR-8
A549 = test system: A549
MCF7 = test system: MCF7
IGROV-1 = test system: IGROV-1
MDA-MB-231 = test system: MDA-MB-231
SF-295 = test system: SF-295
U-251 = test system: U-251
M14 = test system: M14
RPMI-8226 = test system: RPMI-8226
UO-31 = test system: UO-31
SF-539 = test system: SF-539
NCI/ADR-RES = test system: NCI/ADR-RES
SF-268 = test system: SF-268
SK-OV-3 = test system: SK-OV-3
SK-MEL-2 = test system: SK-MEL-2
K562 = test system: K562
Hs-578T = test system: Hs-578T
RXF 393 = test system: RXF 393
T47D = test system: T47D
786-0 = test system: 786-0
SNB-19 = test system: SNB-19
HCT-116 = test system: HCT-116
Malme-3M = test system: Malme-3M
NCI-H460 = test system: NCI-H460
TK-10 = test system: TK-10
HT-29 = test system: HT-29
NCI-H522 = test system: NCI-H522
OVCAR-4 = test system: OVCAR-4
EKVX = test system: EKVX
HCT-15 = test system: HCT-15
SR = test system: SR
HL-60 = test system: HL-60
SK-MEL-28 = test system: SK-MEL-28
CAKI-1 = test system: CAKI-1
LOX IMVI = test system: LOX IMVI
SN12C = test system: SN12C
OVCAR-5 = test system: OVCAR-5
HOP-92 = test system: HOP-92
SW-620 = test system: SW-620
OVCAR-3 = test system: OVCAR-3
MOLT-4 = test system: MOLT-4
MDA-MB-435 = test system: MDA-MB-435
BT-549 = test system: BT-549
KM12 = test system: KM12
MDA-N = test system: MDA-N
DU-145 = test system: DU-145
NCI-H226 = test system: NCI-H226
ACHN = test system: ACHN
PC-3 = test system: PC-3
A498 = test system: A498

COC(=O)c1ccc(/C=N/c2cc(C)nn2-c2ccccc2)cc1
GI50 (SNB-75): 21.1 µM (inactive) | GI50 (COLO 205): 13.5 µM (inactive) | GI50 (CCRF-CEM): 29.2 µM (inactive) | GI50 (NCI-H23): 48.5 µM (inactive) | GI50 (HCC 2998): 2.79 µM (inactive) | GI50 (UACC-62): 65.8 µM (inactive) | GI50 (SK-MEL-5): 19.4 µM (inactive) | GI50 (HOP-62): 18.5 µM (inactive) | GI50 (UACC-257): 6.04 µM (inactive) | GI50 (OVCAR-8): 73.8 µM (inactive) | GI50 (A549): 76.6 µM (inactive) | GI50 (MCF7): 15.1 µM (inactive) | GI50 (IGROV-1): 34.9 µM (inactive) | GI50 (MDA-MB-231): > 100 µM (inactive) | GI50 (SF-295): 35.8 µM (inactive) | GI50 (U-251): 20.6 µM (inactive) | GI50 (M14): 22.5 µM (inactive) | GI50 (RPMI-8226): 20.4 µM (inactive) | GI50 (UO-31): > 100 µM (inactive) | GI50 (SF-539): > 100 µM (inactive) | GI50 (NCI/ADR-RES): 49.3 µM (inactive) | GI50 (SF-268): 57.1 µM (inactive) | GI50 (SK-OV-3): 34.4 µM (inactive) | GI50 (SK-MEL-2): 49 µM (inactive) | GI50 (K562): 4.5 µM (inactive) | GI50 (Hs-578T): 91.2 µM (inactive) | GI50 (RXF 393): > 100 µM (inactive) | GI50 (T47D): 16.4 µM (inactive) | GI50 (786-0): 67 µM (inactive) | GI50 (SNB-19): 33.5 µM (inactive) | GI50 (HCT-116): 29 µM (inactive) | GI50 (Malme-3M): 70.8 µM (inactive) | GI50 (NCI-H460): 10.6 µM (inactive) | GI50 (TK-10): 2.12 µM (inactive) | GI50 (HT-29): 22.2 µM (inactive) | GI50 (NCI-H522): 28.8 µM (inactive) | GI50 (OVCAR-4): 38.6 µM (inactive) | GI50 (EKVX): 75.7 µM (inactive) | GI50 (HCT-15): 13.7 µM | GI50 (SR): 19.2 µM (inactive) | GI50 (HL-60): 20.1 µM (inactive) | GI50 (SK-MEL-28): 82.2 µM (inactive) | GI50 (CAKI-1): 93.1 µM (inactive) | GI50 (LOX IMVI): 35.9 µM (inactive) | GI50 (SN12C): 48.3 µM (inactive) | GI50 (OVCAR-5): > 100 µM (inactive) | GI50 (HOP-92): 99.1 µM (inactive) | GI50 (SW-620): 20.7 µM (inactive) | GI50 (OVCAR-3): 12 µM (inactive) | GI50 (MOLT-4): 8.47 µM (inactive) | GI50 (MDA-MB-435): 8.65 µM (inactive) | GI50 (BT-549): 34.9 µM (inactive) | GI50 (KM12): 24.2 µM (inactive) | GI50 (MDA-N): 13.8 µM (inactive) | GI50 (DU-145): 41 µM (inactive) | GI50 (NCI-H226): 89.5 µM (inactive) | GI50 (ACHN): > 100 µM (inactive) | GI50 (PC-3): 40.9 µM (inactive)

C#CC1(O)C(COP(=O)(O)OC(COCCCCCCCCCCCCCCCCCC)COP(=O)(O)OCC2OC(n3cc(C)c(=O)[nH]c3=O)CC2N=[N+]=[N-])OC(n2ccc(N)nc2=O)C1O (stereo unspecified)
GI50 (SNB-75): 2.52 µM (inactive) | GI50 (COLO 205): 0.512 µM (active) | GI50 (CCRF-CEM): 0.562 µM (active) | GI50 (NCI-H23): 2.61 µM (inactive) | GI50 (UACC-62): 1.88 µM (inactive) | GI50 (SK-MEL-5): 2.75 µM (inactive) | GI50 (HOP-62): 1.82 µM (inactive) | GI50 (UACC-257): 3.77 µM (inactive) | GI50 (OVCAR-8): 0.881 µM (active) | GI50 (A549): 0.29 µM (active) | GI50 (MCF7): 0.122 µM (active) | GI50 (IGROV-1): 0.381 µM (active) | GI50 (MDA-MB-231): 2.39 µM (inactive) | GI50 (SF-295): 0.221 µM (active) | GI50 (U-251): 0.264 µM (active) | GI50 (M14): 8.02 µM (inactive) | GI50 (RPMI-8226): 0.0644 µM (active) | GI50 (UO-31): 0.194 µM (active) | GI50 (SF-539): 0.282 µM (active) | GI50 (NCI/ADR-RES): 1.22 µM (inactive) | GI50 (SF-268): 0.957 µM (active) | GI50 (SK-OV-3): 4 µM (inactive) | GI50 (SK-MEL-2): 0.382 µM (active) | GI50 (K562): 0.216 µM (active) | GI50 (Hs-578T): 5.4 µM (inactive) | GI50 (RXF 393): 1.37 µM (inactive) | GI50 (T47D): 3.73 µM (inactive) | GI50 (786-0): 0.706 µM (active) | GI50 (SNB-19): 1.8 µM (inactive) | GI50 (HCT-116): 0.105 µM (active) | GI50 (Malme-3M): 1.66 µM (inactive) | GI50 (NCI-H460): 0.0843 µM (active) | GI50 (TK-10): 0.505 µM (active) | GI50 (HT-29): 1.16 µM (inactive) | GI50 (NCI-H522): 0.083 µM (active) | GI50 (OVCAR-4): 4.45 µM (inactive) | GI50 (EKVX): 5.25 µM (inactive) | GI50 (HCT-15): 0.582 µM | GI50 (SR): < 0.0429 µM (active) | GI50 (HL-60): 0.617 µM (active) | GI50 (SK-MEL-28): 2.31 µM (inactive) | GI50 (CAKI-1): 0.31 µM (active) | GI50 (LOX IMVI): 0.224 µM (active) | GI50 (SN12C): 0.807 µM (active) | GI50 (OVCAR-5): 3.28 µM (inactive) | GI50 (HOP-92): 0.91 µM (active) | GI50 (SW-620): 0.453 µM (active) | GI50 (A498): 1.69 µM (inactive) | GI50 (OVCAR-3): 4.58 µM (inactive) | GI50 (MOLT-4): 0.347 µM (active) | GI50 (MDA-MB-435): 0.859 µM (active) | GI50 (BT-549): 2.68 µM (inactive) | GI50 (KM12): 0.891 µM (active) | GI50 (MDA-N): 1.14 µM (inactive) | GI50 (DU-145): 0.946 µM (active) | GI50 (NCI-H226): 1.56 µM (inactive) | GI50 (ACHN): 0.432 µM (active) | GI50 (PC-3): 2.86 µM (inactive)
